From ChEMBL document CHEMBL3826961, “Lanostane triterpenoids from Ganoderma curtisii and their NO production inhibitory activities of LPS-induced microglia” (Bioorg Med Chem Lett, 2016) come the findings set out here.

Series [1] is described as follows: Antiinflammatory activity in mouse BV2 cells assessed as inhibition of LPS-induced NO production incubated for 24 hrs measured after 15 mins by Griess assay. Format: functional, cell-based. Conditions: BV-2.
A short description of series [2]: Cytotoxicity against LPS-induced mouse BV2 cells assessed as cell viability after 24 hrs by MTT assay. The series is classed as cell-based, BV-2. Set-up: concentration or dose not given beside the values. As to conditions: read-out: Activity.

Take `C/C(=C/C(=O)CC(C)C(=O)O)[C@H]1CC(=O)[C@@]2(C)C3=C(C(=O)C[C@]12C)[C@@]1(C)CCC(=O)C(C)(C)[C@@H]1C[C@@H]3O` (stereo partly specified): the IC50 in series [1] came to 13.8 µM. The viability at 24 h in series [2] came to 96.5%.
The like results for `CC(=O)O[C@@H]1C(=O)C2=C([C@@H](O)C[C@H]3C(C)(C)[C@@H](O)CC[C@]23C)[C@]2(C)C(=O)C[C@H]([C@H](C)CC(=O)CC(C)C(=O)O)[C@@]12C` (stereo partly specified) [GANODERIC ACID K] were, in that order, 3.65 µM and 98.5%.
The matching figures for `CC(=O)O[C@@H]1C(=O)C2=C(C(=O)C[C@H]3C(C)(C)[C@@H](O)CC[C@]23C)[C@]2(C)C(=O)C[C@H](/C(C)=C\C(=O)CC(C)C(=O)O)[C@@]12C` (stereo partly specified): 10.4 µM and 95.1%.
The like results for `CC(CC(=O)C[C@@H](C)[C@H]1CC(=O)[C@@]2(C)C3=C(C(=O)C[C@]12C)[C@@]1(C)CCC(=O)C(C)(C)[C@@H]1C[C@@H]3O)C(=O)O` (stereo partly specified) [GANODERIC ACID D] were, in that order, 10.9 µM and 93.3%.
As for `CC(=O)O[C@@H]1C(=O)C2=C(C(=O)C[C@H]3C(C)(C)C(=O)CC[C@]23C)[C@]2(C)C(=O)C[C@H]([C@H](C)CC(=O)CC(C)C(=O)O)[C@@]12C` (stereo partly specified) [GANODERIC ACID F], the IC50 in series [1] stood at 24.1 µM. The viability at 24 h in series [2] is 90.6%.
The like results for `CC(CC(=O)C[C@@H](C)[C@H]1CC(=O)[C@@]2(C)C3=C(C(=O)[C@@H](O)[C@]12C)[C@@]1(C)CC[C@H](O)C(C)(C)[C@@H]1CC3=O)C(=O)O` (stereo partly specified) [GANODERIC ACID C6] were, in that order, 15.4 µM and 91.6%.
The like results for `CC(CC(=O)C[C@@H](C)[C@H]1C[C@H](O)[C@@]2(C)C3=C(C(=O)C[C@]12C)[C@@]1(C)CCC(=O)C(C)(C)[C@@H]1CC3)C(=O)O` (stereo partly specified) [GANOLUCIDIC ACID A] were, in that order, 25.3 µM and 95.2%.
`C/C(=C/C(=O)CC(C)C(=O)O)[C@H]1CC(=O)[C@@]2(C)C3=C(C(=O)[C@@H](O)[C@]12C)[C@@]1(C)CC[C@H](O)C(C)(C)[C@@H]1C[C@@H]3O` (stereo partly specified): the IC50 in series [1] was found to be 9.55 µM. Further, the viability at 24 h in series [2] was 93.5%.
The matching figures for `C/C(=C\CC[C@@H](C)[C@H]1CC[C@@]2(C)C3=CC[C@H]4C(C)(C)[C@@H](O)CC[C@]4(C)C3=CC[C@]12C)CO` [GANODEROL B]: 13.7 µM and 91.3%.
The like results for `C/C(=C/C(=O)CC(C)C(=O)O)[C@H]1C[C@H](O)[C@@]2(C)C3=C(C(=O)C[C@]12C)[C@@]1(C)CCC(=O)C(C)(C)[C@@H]1CC3` (stereo partly specified) were, in that order, 26.8 µM and 89.3%.
The matching figures for `CC(CC(=O)C[C@@H](C)[C@H]1C[C@H](O)[C@@]2(C)C3=C(C(=O)C[C@]12C)[C@@]1(C)CCC(=O)C(C)(C)[C@@H]1CC3=O)C(=O)O` (stereo partly specified) [GANODERIC ACID J]: 22 µM and 93.7%.
In the case of `CC(CC(=O)C[C@@H](C)[C@H]1C[C@H](O)[C@@]2(C)C3=C(C(=O)C[C@]12C)[C@@]1(C)CC[C@H](O)C(C)(C)[C@@H]1C[C@@H]3O)C(=O)O` (stereo partly specified), the IC50 in series [1] came out at 13.6 µM. Also, the viability at 24 h in series [2] was 90.7%.
The matching figures for `COC(=O)C(C)CC(=O)C[C@@H](C)[C@H]1C[C@H](O)[C@@]2(C)C3=C(C(=O)C[C@]12C)[C@@]1(C)CCC(=O)C(C)(C)[C@@H]1C[C@@H]3O` (stereo partly specified) [METHYL GANODERATE A]: 8.01 µM and 91.3%.
The matching figures for `C[C@H](CC[C@H](O)[C@](C)(O)CO)[C@H]1CC[C@@]2(C)C3=CC[C@H]4C(C)(C)C(=O)CC[C@]4(C)C3=CC[C@]12C` [GANODERMANONTRIOL]: 23.6 µM and 85.5%.
The like results for `CC(CC(=O)C[C@@H](C)[C@H]1C[C@H](O)[C@@]2(C)C3=C(C(=O)C[C@]12C)[C@@]1(C)CC[C@H](O)[C@@](C)(CO)[C@@H]1C[C@@H]3O)C(=O)O` (stereo partly specified) were, in that order, 4.15 µM and 97.8%.
Regarding `CC(CC(=O)C[C@@H](C)[C@H]1CC(=O)[C@@]2(C)C3=C(C(=O)C[C@]12C)[C@@]1(C)CC[C@H](O)C(C)(C)[C@@H]1C[C@@H]3O)C(=O)O` (stereo partly specified) [GANODERIC ACID B], in series [1], the IC50 was 20.2 µM. The viability at 24 h in series [2] was 94.7%.
For the compound `O=c1c(O)c(-c2ccc(O)c(O)c2)oc2cc(O)cc(O)c12` [QUERCETIN], the IC50 in series [1] came to 15.1 µM. The viability at 24 h in series [2] turned out to be 92.5%.
For `CC(CC(=O)C[C@@H](C)[C@H]1CC(=O)[C@@]2(C)C3=C(C(=O)[C@@H](O)[C@]12C)[C@@]1(C)CCC(=O)C(C)(C)[C@@H]1C[C@@H]3O)C(=O)O` (stereo partly specified), the IC50 in series [1] is 5.91 µM. The viability at 24 h in series [2] is 92.3%.
The matching figures for `CC(CC(=O)C[C@](C)(O)[C@H]1CC(=O)[C@@]2(C)C3=C(C(=O)[C@@H](O)[C@]12C)[C@@]1(C)CC[C@H](O)C(C)(C)[C@@H]1C[C@@H]3O)C(=O)O` (stereo partly specified): 21.3 µM and 96.3%.
The matching figures for `CC(=O)O[C@@H]1C(=O)C2=C(C(=O)C[C@H]3C(C)(C)[C@@H](O)CC[C@]23C)[C@]2(C)C(=O)C[C@H]([C@H](C)CC(=O)CC(C)C(=O)O)[C@@]12C` (stereo partly specified) [GANODERIC ACID H]: 12.6 µM and 90.4%.
Take `COC(=O)CC[C@@H](C)[C@H]1CC(=O)[C@@]2(C)C3=C(C(=O)[C@@H](O)[C@]12C)[C@@]1(C)CC[C@H](O)C(C)(C)[C@@H]1CC3=O` [METHYL LUCIDENATE L]: the IC50 in series [1] was found to be 22.5 µM. The viability at 24 h in series [2] stood at 83.5%.
`C/C(=C/C(=O)CC(C)C(=O)O)[C@H]1CC(=O)[C@@]2(C)C3=C(C(=O)[C@@H](O)[C@]12C)[C@@]1(C)CC[C@H](O)C(C)(C)[C@@H]1CC3=O` (stereo partly specified): the IC50 in series [1] was 25.9 µM. Further, the viability at 24 h in series [2] worked out at 94.5%.
The like results for `CC(CC(=O)C[C@@H](C)[C@H]1CC(=O)[C@@]2(C)C3=C(C(=O)[C@@H](O)[C@]12C)[C@@]1(C)CC[C@H](O)C(C)(C)[C@@H]1C[C@@H]3O)C(=O)O` (stereo partly specified) [GANODERIC ACID G] were, in that order, 5.77 µM and 95.2%.
As for `CC(CC(=O)C[C@@H](C)[C@H]1CC(=O)[C@@]2(C)C3=C(C(=O)C[C@]12C)[C@@]1(C)CCC(=O)C(C)(C)[C@@H]1CC3=O)C(=O)O` (stereo partly specified), the IC50 in series [1] worked out at 9.41 µM. The viability at 24 h in series [2] turned out to be 97.5%.
For `CC(CC(=O)C[C@@H](C)[C@H]1C[C@H](O)[C@@]2(C)C3=C(C(=O)C[C@]12C)[C@@]1(C)CCC(=O)C(C)(C)[C@@H]1C[C@@H]3O)C(=O)O` (stereo partly specified), the IC50 in series [1] came to 13.6 µM. In series [2], the viability at 24 h came to 97.9%.
On to `CC(CC(=O)C[C@@H](C)[C@H]1C[C@H](O)[C@@]2(C)C3=C(C(=O)C[C@]12C)[C@@]1(C)CC[C@H](O)C(C)(C)[C@@H]1CC3=O)C(=O)O` (stereo partly specified), for which, in series [1], the IC50 turned out to be 6.5 µM. In addition, the viability at 24 h in series [2] is 89.3%.
The like results for `C/C(=C/C(=O)CC(C)C(=O)O)[C@H]1C[C@H](O)[C@@]2(C)C3=C(C(=O)C[C@]12C)[C@@]1(C)CCC(=O)C(C)(C)[C@@H]1C[C@@H]3O` (stereo partly specified) were, in that order, 8.73 µM and 92.5%.
The like results for `CC(=O)O[C@@H]1C(=O)C2=C(C(=O)C[C@H]3C(C)(C)C(=O)CC[C@]23C)[C@]2(C)C(=O)C[C@H](/C(C)=C\C(=O)CC(C)C(=O)O)[C@@]12C` (stereo partly specified) were, in that order, 28 µM and 94.3%.
